In patent US20020137929A1, “1 - (3-heterocyclylphenyl) isothiourea, -isourea, -guanidine and -amidine herbicidal agents” (Intellectual Property Department, BASF Aktiengesellschaft, priority 1998, published 2002):

Key:
[1] = system: CHEAL (Lambsquarters, Common); assay: Postemergence herbicidal evaluation; type: in vivo, Chenopodium album; settings: postemergence
Summary of the method: (§1)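 Rate range approx. 0.0156–0.500 kg/ha. Foliar application at 40 psi to ~2-week seedlings; surfactant 0.5% TWEEN 20 in 50/50 acetone/water. Evaluation 4–5 wk post-treatment by 0–9 visual injury score, means of replicate tests.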

[2] = system: CYPSE (Flatsedge); assay: Postemergence weed control under flooded paddy conditions; type: in vivo, Cyperus serotinus; settings: postemergence weeds, rated 3 to 4 weeks after treatment
Summary of the method: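 With weeds 3 to 5 cm tall and rice at the 1.5 to 2.5 leaf stage, containers were flooded and water held 1.5 to 3 cm above soil. Compounds in 50/50 v/v aqueous/acetone went into the flood water at about 0.0313 to 0.500 kg/ha a.i. Effects were visually rated 0–9 against controls after three to four weeks in the greenhouse.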

[3] = system: TRZAWR (Wheat, Winter, cv Riband); assay: Preemergence herbicidal evaluation; type: in vivo, Triticum aestivum; settings: rated 4-5 weeks after treatment; for TRZAWR rating: preemergence, 0-9 scale
Summary of the method: (§2)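 Rating at 4–5 wk post-spray on a 0–9 visual scale vs control. Application: aqueous acetone, ~0.0156–0.500 kg/ha, to soil surface after seeding, preemergence.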

[4] = system: SAGPY (Arrowhead (Pygmaea)); assay: Preemergence weed control under flooded paddy conditions; type: in vivo, Sagittaria pygmaea; settings: rated 3-4 weeks after treatment
Summary of the method: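 Using flooded silt loam (water 1.5 to 3 cm deep), seeds sown in the top 0.5 cm were exposed preemergence to compound pipetted into the flood at about 0.0313 to 0.500 kg/ha. Effects were scored 0-9 by eye three to four weeks later.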

[5] = system: ORYSAT (Rice, Tebonnet); assay: Preemergence herbicidal evaluation; type: in vivo, Oryza sativa, (L.) Tebonnet; settings: rated 4-5 weeks after treatment; for ORYSAT rating: preemergence, 0-9 scale
Summary of the method: as §2

[6] = system: CASOB (Sicklepod); assay: Postemergence herbicidal evaluation; type: in vivo, Cassia obtusifolia; settings: postemergence
Summary of the method: as §1

[7] = system: CYPIR (Rice Flatsedge); assay: Preemergence weed control under flooded paddy conditions; type: in vivo, Cyperus iria; settings: rated 3-4 weeks after treatment
Summary of the method: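 Silt loam, seeds in top 0.5 cm; flood held 1.5-3 cm; test cpd as acetone/water 50/50 into flood water, ~0.0313-0.500 kg/ha a.i.; greenhouse 3-4 wk; visual 0-9 score vs control.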

[8] = system: GALAP (Galium); assay: Preemergence herbicidal evaluation; type: in vivo, Galium aparine; settings: rated 4-5 weeks after treatment; for GALAP rating: preemergence, 0-9 scale
Summary of the method: as §2

[9] = system: ECHCG (Barnyardgrass); assay: Postemergence herbicidal evaluation; type: in vivo, Echinochloa crus-galli; settings: postemergence
Summary of the method: as §1

[10] = system: GLXMAW (Soybean, Williams); assay: Preemergence herbicidal evaluation; type: in vivo, Glycine max, (L.) Merr. cv Williams; settings: rated 4-5 weeks after treatment; for GLXMAW rating: preemergence, 0-9 scale
Summary of the method: as §2

[11] = system: ORYSAT (Rice, Tebonnet); assay: Postemergence herbicidal evaluation; type: in vivo, Oryza sativa, (L.) Tebonnet; settings: postemergence
Summary of the method: as §1

[12] = system: ZEAMX (Corn, Field); assay: Preemergence herbicidal evaluation; type: in vivo, Zea mays; settings: rated 4-5 weeks after treatment; for ZEAMX rating: preemergence, 0-9 scale
Summary of the method: as §2

[13] = system: SETVI (Foxtail, Green); assay: Preemergence herbicidal evaluation; type: in vivo, Setaria viridis; settings: rated 4-5 weeks after treatment; for SETVI rating: preemergence, 0-9 scale
Summary of the method: as §2

## COC(=O)C1(N2C(=O)CSC2=Nc2cc(-n3c(=O)cc(C(F)(F)F)n(C)c3=O)c(F)cc2Cl)CCCCC1 [Compound 81, Methyl 1-{2-{{2-chloro-5-[3,6-dihydro-3-methyl-2,6-dioxo-4-(trifluoromethyl)-1(2H)-pyrimidinyl]-4-fluorophenyl}imino}-4-oxo-3-thiazolidinyl}-cyclohexanecarboxylate]
[1]; rate 0.0158 kg/ha
  CHEAL herbicidal rating: 4.0
[1]; rate 0.0315 kg/ha
  CHEAL herbicidal rating: 3.0
[2]; Rate 0.0625 kg/ha
  Herbicidal rating CYPSE: 0.0
[2]; Rate 0.1250 kg/ha
  Herbicidal rating CYPSE: 0.0
[2]; Rate 0.2500 kg/ha
  Herbicidal rating CYPSE: 0.0
[3]; 0.0313 kg/ha
  TRZAWR rating: 0.0
[3]; 0.0625 kg/ha
  TRZAWR rating: 0.0
[3]; 0.1250 kg/ha
  TRZAWR rating: 1.0
[3]; 0.2500 kg/ha
  TRZAWR rating: 1.0
[4]; 0.0625 kg/ha
  SAGPY herbicidal effect rating: 0.0
[4]; 0.1250 kg/ha
  SAGPY herbicidal effect rating: 0.0
[4]; 0.2500 kg/ha
  SAGPY herbicidal effect rating: 0.0
[5]; 0.0313 kg/ha
  ORYSAT rating: 0.0
[5]; 0.0625 kg/ha
  ORYSAT rating: 0.0
[5]; 0.1250 kg/ha
  ORYSAT rating: 1.0
[5]; 0.2500 kg/ha
  ORYSAT rating: 1.0
[6]; rate 0.0158 kg/ha
  CASOB herbicidal rating: 1.0
[6]; rate 0.0315 kg/ha
  CASOB herbicidal rating: 2.0
[6]; rate 0.0630 kg/ha
  CASOB herbicidal rating: 5.0
[7]; 0.0625 kg/ha
  CYPIR herbicidal effect rating: 4.0
[7]; 0.1250 kg/ha
  CYPIR herbicidal effect rating: 5.0
[7]; 0.2500 kg/ha
  CYPIR herbicidal effect rating: 5.0
[8]; 0.0313 kg/ha
  GALAP rating: 0.0
[8]; 0.0625 kg/ha
  GALAP rating: 0.0
[8]; 0.1250 kg/ha
  GALAP rating: 0.0
[8]; 0.2500 kg/ha
  GALAP rating: 1.0
[9]; rate 0.0158 kg/ha
  ECHCG herbicidal rating: 1.0
[9]; rate 0.0315 kg/ha
  ECHCG herbicidal rating: 2.0
[9]; rate 0.0630 kg/ha
  ECHCG herbicidal rating: 6.0
[10]; 0.0313 kg/ha
  GLXMAW rating: 0.0
[10]; 0.0625 kg/ha
  GLXMAW rating: 2.0
[10]; 0.1250 kg/ha
  GLXMAW rating: 1.0
[10]; 0.2500 kg/ha
  GLXMAW rating: 3.0
[11]; rate 0.0158 kg/ha
  ORYSAT herbicidal rating: 4.5
[11]; rate 0.0315 kg/ha
  ORYSAT herbicidal rating: 4.5
[11]; rate 0.0630 kg/ha
  ORYSAT herbicidal rating: 5.5
[12]; 0.0313 kg/ha
  ZEAMX rating: 0.0
[12]; 0.0625 kg/ha
  ZEAMX rating: 2.0
[12]; 0.1250 kg/ha
  ZEAMX rating: 2.0
[12]; 0.2500 kg/ha
  ZEAMX rating: 2.0
[13]; 0.0313 kg/ha
  SETVI rating: 0.0
[13]; 0.0625 kg/ha
  SETVI rating: 1.0
[13]; 0.1250 kg/ha
  SETVI rating: 0.0
[13]; 0.2500 kg/ha
  SETVI rating: 3.0

## COC(=O)[C@H](Cc1ccccc1)N1C(=O)CS/C1=N/c1cc(-n2c(=O)cc(C(F)(F)F)n(C)c2=O)c(F)cc1Cl [Compound 72, Methyl α-benzyl-2-{{2-chloro-5-[3,6-dihydro-3-methyl-2,6-dioxo-4-(trifluoromethyl)-1(2H)-pyrimidinyl]-4-fluorophenyl]imino}-4-oxo-3-thiazolidineacetate, L-]
[1]; rate 0.0158 kg/ha
  CHEAL herbicidal rating: 7.0
[1]; rate 0.0315 kg/ha
  CHEAL herbicidal rating: 9.0
[2]; Rate 0.0313 kg/ha
  Herbicidal rating CYPSE: 0.0
[2]; Rate 0.0625 kg/ha
  Herbicidal rating CYPSE: 0.0
[2]; Rate 0.1250 kg/ha
  Herbicidal rating CYPSE: 9.0
[2]; Rate 0.2500 kg/ha
  Herbicidal rating CYPSE: 9.0
[3]; rate 0.0156 kg/ha
  Preemergence herbicidal rating TRZAWR: 0.0
[3]; rate 0.0313 kg/ha
  Preemergence herbicidal rating TRZAWR: 0.0
[3]; rate 0.0625 kg/ha
  Preemergence herbicidal rating TRZAWR: 0.0
[3]; rate 0.1250 kg/ha
  Preemergence herbicidal rating TRZAWR: 1.0
[3]; rate 0.2500 kg/ha
  Preemergence herbicidal rating TRZAWR: 2.0
[4]; 0.0313 kg/ha
  SAGPY herbicidal effect rating: 4.0
[4]; 0.0625 kg/ha
  SAGPY herbicidal effect rating: 4.0
[4]; 0.1250 kg/ha
  SAGPY herbicidal effect rating: 4.0
[4]; 0.2500 kg/ha
  SAGPY herbicidal effect rating: 4.0
[5]; rate 0.0156 kg/ha
  Preemergence herbicidal rating ORYSAT: 0.0
[5]; rate 0.0313 kg/ha
  Preemergence herbicidal rating ORYSAT: 0.0
[5]; rate 0.0625 kg/ha
  Preemergence herbicidal rating ORYSAT: 0.0
[5]; rate 0.1250 kg/ha
  Preemergence herbicidal rating ORYSAT: 1.0
[5]; rate 0.2500 kg/ha
  Preemergence herbicidal rating ORYSAT: 1.0
[6]; rate 0.0158 kg/ha
  CASOB herbicidal rating: 8.0
[6]; rate 0.0315 kg/ha
  CASOB herbicidal rating: 6.0
[6]; rate 0.0630 kg/ha
  CASOB herbicidal rating: 7.0
[7]; 0.0313 kg/ha
  CYPIR herbicidal effect rating: 6.0
[7]; 0.0625 kg/ha
  CYPIR herbicidal effect rating: 6.0
[7]; 0.1250 kg/ha
  CYPIR herbicidal effect rating: 7.0
[7]; 0.2500 kg/ha
  CYPIR herbicidal effect rating: 9.0
[8]; rate 0.0156 kg/ha
  Preemergence herbicidal rating GALAP: 0.0
[8]; rate 0.0313 kg/ha
  Preemergence herbicidal rating GALAP: 0.0
[8]; rate 0.0625 kg/ha
  Preemergence herbicidal rating GALAP: 0.0
[8]; rate 0.1250 kg/ha
  Preemergence herbicidal rating GALAP: 0.0
[8]; rate 0.2500 kg/ha
  Preemergence herbicidal rating GALAP: 9.0
[9]; rate 0.0158 kg/ha
  ECHCG herbicidal rating: 1.0
[9]; rate 0.0315 kg/ha
  ECHCG herbicidal rating: 3.0
[9]; rate 0.0630 kg/ha
  ECHCG herbicidal rating: 3.0
[10]; rate 0.0156 kg/ha
  Preemergence herbicidal rating GLXMAW: 0.0
[10]; rate 0.0313 kg/ha
  Preemergence herbicidal rating GLXMAW: 0.0
[10]; rate 0.0625 kg/ha
  Preemergence herbicidal rating GLXMAW: 0.0
[10]; rate 0.1250 kg/ha
  Preemergence herbicidal rating GLXMAW: 1.0
[10]; rate 0.2500 kg/ha
  Preemergence herbicidal rating GLXMAW: 3.0
[11]; rate 0.0158 kg/ha
  ORYSAT herbicidal rating: 3.5
[11]; rate 0.0315 kg/ha
  ORYSAT herbicidal rating: 3.5
[11]; rate 0.0630 kg/ha
  ORYSAT herbicidal rating: 4.5
[12]; rate 0.0156 kg/ha
  Preemergence herbicidal rating ZEAMX: 0.0
[12]; rate 0.0313 kg/ha
  Preemergence herbicidal rating ZEAMX: 0.0
[12]; rate 0.0625 kg/ha
  Preemergence herbicidal rating ZEAMX: 0.0
[12]; rate 0.1250 kg/ha
  Preemergence herbicidal rating ZEAMX: 1.0
[12]; rate 0.2500 kg/ha
  Preemergence herbicidal rating ZEAMX: 1.0
[13]; rate 0.0156 kg/ha
  Preemergence herbicidal rating SETVI: 0.0
[13]; rate 0.0313 kg/ha
  Preemergence herbicidal rating SETVI: 0.0
[13]; rate 0.0625 kg/ha
  Preemergence herbicidal rating SETVI: 0.0
[13]; rate 0.1250 kg/ha
  Preemergence herbicidal rating SETVI: 9.0
[13]; rate 0.2500 kg/ha
  Preemergence herbicidal rating SETVI: 9.0
